Laboratory results: patent US12673961B2 (Agios Pharmaceuticals, Inc., priority 2022, dated 2026)

Target: T1, human PAH with the R408W mutation (Homo sapiens, UniProt P00439, R408W)
T1 construct: expressed in transfected cells
T1 sequence (P00439 1-452 R408W): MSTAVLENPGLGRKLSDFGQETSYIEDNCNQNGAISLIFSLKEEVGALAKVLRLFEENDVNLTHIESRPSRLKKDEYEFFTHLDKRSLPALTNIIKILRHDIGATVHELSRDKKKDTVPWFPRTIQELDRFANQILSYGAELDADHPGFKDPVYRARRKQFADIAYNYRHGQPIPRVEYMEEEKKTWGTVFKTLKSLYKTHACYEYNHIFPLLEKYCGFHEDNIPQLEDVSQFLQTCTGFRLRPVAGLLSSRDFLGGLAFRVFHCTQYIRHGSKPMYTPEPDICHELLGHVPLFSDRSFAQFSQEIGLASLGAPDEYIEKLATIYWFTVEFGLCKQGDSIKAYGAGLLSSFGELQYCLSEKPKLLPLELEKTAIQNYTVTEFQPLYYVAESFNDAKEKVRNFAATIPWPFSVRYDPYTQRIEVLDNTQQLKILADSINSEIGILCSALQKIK
Assay: Cell Based Phenylalanine Flux Assay;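 note: Ten-point dose curve from 2-fold serial dilutions, run in duplicate at 0.5% DMSO final, tracer step used 20 µM sepiapterin and 800 µM labeled phenylalanine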
Conditions: A375 cells expressing human R408W PAH; 24 hrs with compound, then sepiapterin and 13C9,15N-Phenylalanine for 4 hours; 13C-Tyrosine by LC-MS; average where tested multiple times; read-out: AC50

First: FC(F)(F)c1cccn2nc([C@H]3c4nc[nH]c4CCN3c3ncccn3)cc12 [Example 1693, (R)-5-(pyrimidin-2-yl)-4-(4-(trifluoromethyl)pyrazolo [1,5-a]pyridin-2-yl)-4,5,6,7-tetrahydro-1H-imidazo [4,5-c]pyridine]
Second: Fc1cccn2nc([C@@H]3c4nc[nH]c4CCN3c3ncc(C(F)(F)F)cn3)cc12 [Example 1778, (S)-4-(4-fluoropyrazolo [1,5-a]pyridin-2-yl)-5-(5-(trifluoromethyl)pyrimidin-2-yl)-4,5,6,7-tetrahydro-1H-imidazo[4,5-c]pyridine]
The AC50 of the first is higher: 1000 to 5000 nM for the first, less than 500 nM for the second.

`Cc1ccc2c(C(=O)N3CCc4[nH]cnc4[C@H]3c3cc4c(C(F)F)cccn4n3)cnn2c1` [Example 1712, (S)-(4-(4-(difluoromethyl)pyrazolo[1,5-a]pyridin-2-yl)-6,7-dihydro-1H-imidazo [4,5-c]pyridin-5(4H)-yl)(6-methylpyrazolo[1,5-a]pyridin-3-yl)methanone] and `CN(C)c1ccc2c(C(=O)N3CCc4[nH]cnc4[C@H]3c3cc4c(F)cccn4n3)cnn2c1` [Example 1772, (S)-(6-(dimethylamino)pyrazolo[1,5-a]pyridin-3-yl)(4-(4-fluoropyrazolo[1,5-a]pyridin-2-yl)-6,7-dihydro-1H-imidazo[4,5-c]pyridin-5(4H)-yl)methanone] fall in the same range of AC50: 500 to 1000 nM for the first, 500 to 1000 nM for the second.

First: O=C(c1cnn2cc(C3CC3)ccc12)N1CCc2[nH]cnc2[C@@H]1c1cc2c(C(F)(F)F)cccn2n1 [Example 1717, (R)-(6-cyclopropylpyrazolo [1,5-a]pyridin-3-yl)(4-(4-(trifluoromethyl)pyrazolo [1,5-a]pyridin-2-yl)-6,7-dihydro-1H-imidazo[4,5-c]pyridin-5(4H)-yl)methanone]
Second: CN(C)c1ccc2c(C(=O)N3CCc4[nH]cnc4[C@H]3c3cc4c(C(F)(F)F)cccn4n3)cnn2c1 [Example 1746, (S)-(6-(dimethylamino)pyrazolo[1,5-a]pyridin-3-yl)(4-(4-(trifluoromethyl)pyrazolo [1,5-a]pyridin-2-yl)-6,7-dihydro-1H-imidazo[4,5-c]pyridin-5(4H)-yl)methanone]
The AC50 of the first is higher: greater than 5000 nM for the first, less than 500 nM for the second.

First: O=C(c1nnc(C2CC2)o1)N1CCc2[nH]cnc2[C@H]1c1cc2c(OC(F)(F)F)cccn2n1 [Example 1724, (S)-(5-cyclopropyl-1,3,4-oxadiazol-2-yl)(4-(4-(trifluoromethoxy)pyrazolo [1,5-a]pyridin-2-yl)-6,7-dihydro-1H-imidazo[4,5-c]pyridin-5(4H)-yl)methanone]
Second: O=C(c1nnc(C2CC2)o1)N1CCc2[nH]cnc2[C@@H]1c1cc2c(Br)cccn2n1 [Example 1909, (R)-(4-(4-bromopyrazolo [1,5-a]pyridin-2-yl)-1,4,6,7-tetrahydro-5H-imidazo [4,5-c]pyridin-5-yl)(5-cyclopropyl-1,3,4-oxadiazol-2-yl)methanone]
The AC50 of the first is lower: less than 500 nM for the first, 1000 to 5000 nM for the second.

First: COc1cccn2nc([C@@H]3c4nc[nH]c4CCN3C(=O)c3cnn4cc(-c5ccn(C)n5)ccc34)cc12 [Example 1748, (S)-(4-(4-methoxypyrazolo [1,5-a]pyridin-2-yl)-6,7-dihydro-1H-imidazo[4,5-c]pyridin-5(4H)-yl)(6-(1-methyl-1H-pyrazol-3-yl)pyrazolo[1,5-a]pyridin-3-yl)methanone]
Second: Cn1ccc(-c2nnc(C(=O)N3CCc4[nH]cnc4[C@@H]3c3cc4c(Br)cccn4n3)o2)n1 [Example 1888, (R)-(4-(4-bromopyrazolo [1,5-a]pyridin-2-yl)-1,4,6,7-tetrahydro-5H-imidazo[4,5-c]pyridin-5-yl)(5-(1-methyl-1H-pyrazol-3-yl)-1,3,4-oxadiazol-2-yl)methanone]
The AC50 of the first is lower: 500 to 1000 nM for the first, greater than 5000 nM for the second.

Compared with `FC(F)c1cccn2nc([C@H]3c4nc[nH]c4CCN3c3nnc(C(F)(F)F)o3)cc12` [Example 1766, (R)-2-(4-(4-(difluoromethyl)pyrazolo[1,5-a]pyridin-2-yl)-6,7-dihydro-1H-imidazo [4,5-c]pyridin-5(4H)-yl)-5-(trifluoromethyl)-1,3,4-oxadiazole], `Fc1cccn2nc([C@H]3c4nc[nH]c4CCN3c3nnc(C(F)(F)F)o3)cc12` [Example 1822, (R)-2-(4-(4-fluoropyrazolo [1,5-a]pyridin-2-yl)-6,7-dihydro-1H-imidazo [4,5-c]pyridin-5(4H)-yl)-5-(trifluoromethyl)-1,3,4-oxadiazole] is higher in AC50: 500 to 1000 nM for the first, greater than 5000 nM for the second.

`Cc1cccc2cc([C@@H]3c4nc[nH]c4CCN3c3ncc(C(F)(F)F)cn3)nn12` [Example 1802, (S)-4-(7-methylpyrazolo [1,5-a]pyridin-2-yl)-5-(5-(trifluoromethyl)pyrimidin-2-yl)-4,5,6,7-tetrahydro-1H-imidazo[4,5-c]pyridine] and `Fc1cccn2nc([C@@H]3c4nc[nH]c4CCN3c3nnc(C(F)(F)F)o3)cc12` [Example 1823] fall in the same range of AC50: 500 to 1000 nM for the first, 500 to 1000 nM for the second.

`O=C(c1nnc(-c2cnccn2)o1)N1CCc2[nH]cnc2[C@H]1c1cc2c(C3CC3)cccn2n1` [Example 1857, (S)-(4-(4-cyclopropylpyrazolo [1,5-a]pyridin-2-yl)-1,4,6,7-tetrahydro-5H-imidazo[4,5-c]pyridin-5-yl)(5-(pyrazin-2-yl)-1,3,4-oxadiazol-2-yl)methanone] and `O=C(c1nnc(-c2ccccn2)o1)N1CCc2[nH]cnc2[C@H]1c1cc2c(C3CC3)cccn2n1` [Example 1897, (S)-(4-(4-cyclopropylpyrazolo [1,5-a]pyridin-2-yl)-1,4,6,7-tetrahydro-5H-imidazo [4,5-c]pyridin-5-yl)(5-(pyridin-2-yl)-1,3,4-oxadiazol-2-yl)methanone] fall in the same range of AC50: 500 to 1000 nM for the first, 500 to 1000 nM for the second.

Compared with `Fc1cccc(F)c1-c1nnc(N2CCc3[nH]cnc3[C@H]2c2cc3c(F)cccn3n2)o1` [Example 1865, (S)-2-(2,6-difluorophenyl)-5-(4-(4-fluoropyrazolo[1,5-a]pyridin-2-yl)-1,4,6,7-tetrahydro-5H-imidazo[4,5-c]pyridin-5-yl)-1,3,4-oxadiazole], `Fc1ccc(-c2nnc(N3CCc4[nH]cnc4[C@@H]3c3cc4c(C(F)F)cccn4n3)o2)cc1` [Example 1912, (R)-2-(4-(4-(difluoromethyl)pyrazolo[1,5-a]pyridin-2-yl)-1,4,6,7-tetrahydro-5H-imidazo[4,5-c]pyridin-5-yl)-5-(4-fluorophenyl)-1,3,4-oxadiazole] is higher in AC50: less than 500 nM for the first, greater than 5000 nM for the second.

`CC(C)(C)c1ncc(C(=O)N2CCc3[nH]cnc3[C@H]2c2cc3ccccn3n2)o1` [Example 1866, (S)-(2-(tert-butyl)oxazol-5-yl)(4-(pyrazolo[1,5-a]pyridin-2-yl)-1,4,6,7-tetrahydro-5H-imidazo[4,5-c]pyridin-5-yl)methanone] and `Cc1cccn2nc([C@@H]3c4nc[nH]c4CCN3C(=O)c3cnc(C(C)(C)C)o3)cc12` [Example 1920, (S)-(2-(tert-butyl)oxazol-5-yl)(4-(4-methylpyrazolo[1,5-a]pyridin-2-yl)-1,4,6,7-tetrahydro-5H-imidazo[4,5-c]pyridin-5-yl)methanone] cannot be ordered by AC50: less than 500 nM for the first, less than 500 nM for the second.

First: CCc1cccn2nc([C@@H]3c4nc[nH]c4CCN3C(=O)c3nnc(-c4ccccn4)o3)cc12 [Example 1895, (S)-(4-(4-ethylpyrazolo[1,5-a]pyridin-2-yl)-1,4,6,7-tetrahydro-5H-imidazo[4,5-c]pyridin-5-yl)(5-(pyridin-2-yl)-1,3,4-oxadiazol-2-yl) methanone]
Second: O=C(c1nnc(-c2ccccn2)o1)N1CCc2[nH]cnc2[C@@H]1c1cc2c(Br)cccn2n1 [Example 1910, (R)-(4-(4-bromopyrazolo [1,5-a]pyridin-2-yl)-1,4,6,7-tetrahydro-5H-imidazo[4,5-c]pyridin-5-yl)(5-(pyridin-2-yl)-1,3,4-oxadiazol-2-yl)methanone]
The AC50 of the first is lower: less than 500 nM for the first, greater than 5000 nM for the second.

Compared with `Cn1ccc(-c2nnc(C(=O)N3CCc4[nH]cnc4[C@@H]3c3cc4c(C5CC5)cccn4n3)o2)n1` [Example 1901], `CCc1cccn2nc([C@@H]3c4nc[nH]c4CCN3C(=O)c3nnc(-c4cnn(C)c4)o3)cc12` [Example 1924, (S)-(4-(4-ethylpyrazolo [1,5-a]pyridin-2-yl)-1,4,6,7-tetrahydro-5H-imidazo[4,5-c]pyridin-5-yl)(5-(1-methyl-1H-pyrazol-4-yl)-1,3,4-oxadiazol-2-yl)methanone] is lower in AC50: greater than 5000 nM for the first, less than 500 nM for the second.

Going from `CC(C)c1cccn2nc([C@@H]3c4nc[nH]c4CCN3C(=O)c3nnc(-c4ncccc4F)o3)cc12` [Example 1906, (S)-(5-(3-fluoropyridin-2-yl)-1,3,4-oxadiazol-2-yl)(4-(4-isopropylpyrazolo[1,5-a]pyridin-2-yl)-1,4,6,7-tetrahydro-5H-imidazo[4,5-c]pyridin-5-yl)methanone] to `CCc1cccn2nc([C@H]3c4nc[nH]c4CCN3C(=O)c3nnc(C(C)(C)F)o3)cc12` [Example 1923, (R)-(4-(4-ethylpyrazolo [1,5-a]pyridin-2-yl)-1,4,6,7-tetrahydro-5H-imidazo [4,5-c]pyridin-5-yl)(5-(2-fluoropropan-2-yl)-1,3,4-oxadiazol-2-yl)methanone], the AC50 rises from less than 500 nM to greater than 5000 nM.

Molecule `Fc1ccc(-c2nnc(N3CCc4[nH]cnc4[C@H]3c3cc4c(C(F)F)cccn4n3)o2)cc1` [Example 1913, (S)-2-(4-(4-(difluoromethyl)pyrazolo[1,5-a]pyridin-2-yl)-1,4,6,7-tetrahydro-5H-imidazo [4,5-c]pyridin-5-yl)-5-(4-fluorophenyl)-1,3,4-oxadiazole] has an AC50 of less than 500 nM.
